How the values were obtained:
[1] = system: Huh7/Rep-Feo cells; test: Primary HTS cell viability counter-screen (CellTiterGlo); type: cell-based, human; conditions: Table 2 antiviral hits of DOS set; approximately 10-50 μM, most at 33 μM; 48 hours
Description: (§1) Primary Screening-HTS. Information about the library of known bioactive compounds that was screened and the general automated HTS protocol is available at http://www.broad.harvard.edu/chembio/index.html (see FIG. 10 for list of primary HTS with known bioactives library). Based on the results of optimization experiments in the 384-well plate format, the general HTS protocol was adapted as follows. Unless otherwise indicated, cells were incubated at all times in a humidified environment with 5% CO2 at 37° C. The assay was initiated by plating 30 μL of medium containing 2000 cells/well into white 384-well opaque-bottom plates (Nunc, Rochester, N.Y.) using an automated plate filler (Bio-Tek uFiller; Winsooki, Vt.) and allowing the cells to adhere for 24 hours. One hundred nL of compound stock solutions in DMSO was transferred from stock plates into the 384-well assay plates using an automated pin-based compound transfer robot (CyBio CyBi-Well vario; Woburn, Mass.). The final compound concentration in each well was estimated to be approximately 10-50 μM, with most compounds at 33 μM. The wells contained 0.33% DMSO by volume. The cells were then incubated for another 48 hours. The luminescent signal from each plate was detected using an automated plate reader (Perkin-Elmer Envision 1; Wellesley, Mass.). This screen was performed in duplicate. For negative controls, entire DMSO-treated control plates were employed, in addition to DMSO-only control wells that were incorporated into each compound assay plate. The cells were assayed for luciferase activity using the Bright-Glo Luciferase assay system (Promega), following the manufacturer's instructions. As a counter-screen, cell viability was assessed using the CellTiterGlo Luminescent cell viability assay (Promega) following the manufacturer's instructions.
Computational Data Analysis-Primary Screening. For each replicate, a mock-treatment distribution based on the total population of mock (DMSO) controls in that replicate was built (FIG. 11). Each compound was independently assigned a sign (ie, “+” or “−”) Z-score. Z-scores are calculated by dividing each background-subtracted, compound-treated well by the global standard deviation. A global standard deviation of the background-subtracted, mock-treated wells is calculated over the entire experiment. This distribution was determined to be consistent with experimental noise observed under cell-based assay conditions. The resulting collection of continuousvalued Z-scores represents the primary data set to be used for further analysis. The composite Z-score was calculated as a vector projection of each Z-score in duplicate onto an imaginary line of perfect reproducibility. Reproducibility is the cosine of the angle between each Z-score and that imaginary line; it is dimensionless and ranges from −1 to +1. […] The primary data were analyzed using the commercial software packages Pipeline Pilot (SciTegic, San Diego, Calif.) and SpotFire (SpotFire, Inc., Somerville, Mass.). The means of the negative, DMSO-only controls were considered the zero point.
Primary Screening—HTS: Unless otherwise indicated, cells were incubated at all times in a humidified environment with 5% CO2 at 37° C. The assay was initiated by plating 30 μl of medium containing 2,000 cells/well into white 384-well opaque-bottom plates (Nunc; Rochester, N.Y.) using an automated plate filler (Bio-Tek μFiller; Winsooki, Vt.) and allowing the cells to adhere for 24 hours. 100 nl of compound stock solutions in DMSO were transferred from stock plates into the 384-well assay plates using an automated pin-based compound transfer robot (CyBio CyBi-Well vario; Woburn, Mass.). The final compound concentration in each well was estimated to be approximately 10-50 μM, with most compounds at 33 μM. The wells contained 0.33% DMSO by volume. The cells were then incubated for another 48 hours. […]

[2] = system: Huh7/Rep-Feo HCV replicon (HCV RNA replication); type: cell-based, Hepatitis C virus (strain HCV—N, genotype 1b); conditions: Table 2 antiviral hits of DOS set; approximately 10-50 μM, most at 33 μM; 48 hours
Source text: Development of the Huh7/Rep-Feo replicon assay. […] This replicon was derived from a chimpanzee infectious clone (strain HCV—N, genotype 1b). In this replicon, the structural genes have been replaced by a reporter gene. The chimeric reporter gene Feo encodes the firefly luciferase protein fused in-frame with neomycin phosphotransferase. This Huh7/Rep-Feo cell supports high levels of autonomous HCV RNA replication because it was derived from the HCV—N strain, which carries an adaptive mutation in NSSA that confers highlevel replication in tissue culture. Furthermore, the level of luciferase correlates well with levels of HCV RNA production, so that luciferase can be used as a reliable surrogate marker for HCV replication. The use of luciferase as a reporter permits quantitative and highthroughput detection of HCV replication levels. The specific use of firefly luciferase makes this replicon especially well-suited for automation, because the luciferase reagent can be added directly to the cell culture system prior to signal detection without the need for cell lysis, washing, or aspiration.
HCV Replicon System-Primary Screening. […] Briefly, this replicon harbors a subgenomic HCV genotype 1b sequence, fused to firefly luciferase, stably replicating under neomycin selection. Cells were propagated in Dulbecco's Modified Eagle's medium (DMEM) containing 10% fetal bovine serum (FBS) supplemented with 1% penicillin-streptomycin, and 500 μg of Geneticin (Invitrogen Corp., Carlsbad, Calif.)/mL. Cells were cultured in a 37° C., 5% CO2-humidified incubator for all experiments. To decrease day-today variability in the assay, a large homogenous population of subconfluent cells was passaged so that a similar lot of cells could be used throughout the HTS assay.
as §1
Computational Data Analysis-Primary Screening. For each replicate, a mock-treatment distribution based on the total population of mock (DMSO) controls in that replicate was built (FIG. 11).

[3] = system: OR6 cells; test: Secondary assay cell viability (CellTiter-Glo); conditions: 48 hours
Description: Secondary Assays-Hit Validation. Several hits from primary HTS, as well as functionally related compounds, were purchased from Sigma (St. Louis, Mo.), Calbiochem (San Diego, Calif.), and Microsource (Gaylordsville, Conn.). […] Ten mM of stock solutions of the individual compounds to be tested was prepared in the appropriate solvent (DMSO, ethanol, or H2O, according to the manufacturer's information) and stored at −20° C. Cells were seeded into 96-well plates at a density of 2000 cells/well in 100 μL of medium. The cells were incubated for 24 hours at 37° C. to obtain the optimal level of adherence. Solutions of candidate hit compounds were added to wells to achieve final concentrations of 0.1, 1, 10, 50, and 100 μM. The final concentration of DMSO or ethanol in every well was 1% or less by volume. Mock solutions were used as a negative control. PEG-IFN and ribavirin were used as positive controls at various concentrations, alone and in combination. The plates were then incubated at 37° C. with 5% CO2 for 48 hours before they were analyzed. Luminescent signal was generated using the Renilla luciferase assay kit (Promega) according to the manufacturer's instructions. Signal was then detected using a LumiCount (Packard BioScience Company) luminometer. Cell viability was assessed using CellTiter-Glo (Promega), following the manufacturer's instructions. All experiments were performed in triplicate.
Secondary Assays-Data Analysis. Values were presented as a percentage of mock treated control, which was arbitrarily set at 100%. Data were expressed as the mean (±) SD. […] Synergy calculations were performed using CalcuSyn (Biosoft; Cambridge, England).
Secondary Assays—Hit Validation: 10 mM of stock solutions of the individual compounds to be tested were prepared in DMSO and stored at −20° C. Cells were seeded into 96-well plates at a density of 2,000 cells/well in 100 μl of medium. The cells were incubated for 24 hours at 37° C. to obtain the optimal level of adherence. Solutions of candidate hit compounds were added to wells to achieve varying final concentrations between 0.01 and 100 μM. The final concentration of DMSO or ethanol in every well was 1% or less by volume. Mock solutions were used as a negative control. Peginterferon-alfa-2b (PEG-Intron; Schering Corp.; Kenilworth, N.J.) and ribavirin (Sigma; St. Louis, Mo.) were used as positive controls at various concentrations, alone and in combination. The plates were then incubated at 37° C. with 5% CO2 for 48 hours before they were analyzed. Luminescent signal was generated using the Renilla luciferase assay kit (Promega; Madison, Wis.) according to the manufacturer's instructions. Signal was then detected using a LumiCount™ (Packard BioScience Company; Downers Grove, Ill.) luminometer. Cell viability was assessed using CellTiter-Glo (Promega; Madison, Wis.), following the manufacturer's instructions. All experiments were performed in triplicate. Values were presented as a percentage of mock treated control, which was arbitrarily set at 100%. Data were expressed as the mean±SD.
Secondary Assays—Data Analysis: Values were presented as a percentage of mock treated control, which was arbitrarily set at 100%. Data were expressed as the mean±SD.

O=c1n(-c2ccccc2)c(=O)n2n1CC[C@@H]1/C(=N/OC[C@@H](O)COCc3ccco3)[C@H]3O[C@H]3[C@@H](O)[C@@H]12 [BUCMLD-B10A8]
C-CompZ, compositeZ score for cell viability assay [1]: 1.1582 | R-CompZ, compositeZ score for reporter gene assay [2]: −3.7511

C[C@H](O/N=C1/[C@H]2CCn3c(=O)n(-c4ccccc4)c(=O)n3[C@H]2[C@H](O)[C@@H]2O[C@H]12)c1cn([C@H](CO)Cc2ccccc2)nn1 [BUCMLD-B10A10]
C-CompZ, compositeZ score for cell viability assay [1]: 1.9213 | R-CompZ, compositeZ score for reporter gene assay [2]: −2.7028

CC(=O)OC[C@H]1O[C@@H](O/N=C2/[C@H]3CCn4c(=O)n(-c5ccccc5)c(=O)n4[C@H]3[C@H](O)[C@@H]3O[C@H]23)[C@H](OC(C)=O)[C@@H](OC(C)=O)[C@@H]1OC(C)=O [BUCMLD-B10A13]
C-CompZ, compositeZ score for cell viability assay [1]: 1.0278 | R-CompZ, compositeZ score for reporter gene assay [2]: −2.8629

C[C@@H](O/N=C1/[C@H]2CCn3c(=O)n(-c4ccccc4)c(=O)n3[C@H]2[C@H](O)[C@@H]2O[C@H]12)c1cn([C@H](CO)Cc2ccccc2)nn1 [BUCMLD-B10A14]
C-CompZ, compositeZ score for cell viability assay [1]: 1.128 | R-CompZ, compositeZ score for reporter gene assay [2]: −3.5069

COc1ccc(O[C@H]2C=C[C@@H](c3ccccc3)O[C@@H]2CO/N=C(\C)CCN2CCc3nc(-c4ccccc4)c(-c4ccccc4)cc3C2)cc1 [BUCMLD-B13A1]
C-CompZ, compositeZ score for cell viability assay [1]: −0.2035 | R-CompZ, compositeZ score for reporter gene assay [2]: −3.1824

C#CCCCO/N=C1/[C@H]2CCn3c(=O)n(-c4ccccc4)c(=O)n3[C@H]2[C@H](O)[C@@H]2O[C@H]12 [BUCMLD-XL-184]
C-CompZ, compositeZ score for cell viability assay [1]: −0.1464 | R-CompZ, compositeZ score for reporter gene assay [2]: −3.0142

C#CCCCO/N=C1/[C@H]2CCn3c(=O)n([C@@H](CC)c4ccccc4)c(=O)n3[C@H]2[C@H](O)[C@@H]2O[C@H]12 [BUCMLD-XL-189]
C-CompZ, compositeZ score for cell viability assay [1]: 0.2217 | R-CompZ, compositeZ score for reporter gene assay [2]: −3.4882

CC[C@@H](c1ccccc1)n1c(=O)n2n(c1=O)[C@H]1[C@H](O)[C@@H]3O[C@@H]3/C(=N\OC[C@@H](O)COCc3ccco3)[C@H]1CC2 [BUCMLD-XL-190]
C-CompZ, compositeZ score for cell viability assay [1]: 0.4558 | R-CompZ, compositeZ score for reporter gene assay [2]: −2.5928

O=C1C2C=C(Br)C(CC2OCCCCCCO)[C@@]12CO2 (stereo partly drawn) [SM_A1B2_1P32]
C-CompZ, compositeZ score for cell viability assay [1]: 0.9925 | R-CompZ, compositeZ score for reporter gene assay [2]: −3.252

O=C1C2C=C(Br)C(CC2c2ccccc2)[C@@]12CO2 (stereo partly drawn) [SM_A1B5_2P24]
C-CompZ, compositeZ score for cell viability assay [1]: −0.856 | R-CompZ, compositeZ score for reporter gene assay [2]: −3.38

COC12C=C(Br)C(CC1c1cccc(C)c1)[C@@]1(CO1)C2=O (stereo partly drawn) [SM_A4B6_2P123]
C-CompZ, compositeZ score for cell viability assay [1]: −0.795 | R-CompZ, compositeZ score for reporter gene assay [2]: −3.4419

O=C1C2C=C(I)C(CC2OCCCCCCO)[C@@]12CO2 (stereo partly drawn) [SM_A5B2_2P142]
C-CompZ, compositeZ score for cell viability assay [1]: 0.5666 | R-CompZ, compositeZ score for reporter gene assay [2]: −2.7176

O=C1C2C=C(I)C(CC2c2ccccc2)[C@@]12CO2 (stereo partly drawn) [SM_A5B5_2P118]
C-CompZ, compositeZ score for cell viability assay [1]: −0.4963 | R-CompZ, compositeZ score for reporter gene assay [2]: −3.6565

C[C@@]12COC[C@]13C=C(Br)C(C2)[C@@]1(CO1)C3=O [SM_A7C2_2P155]
C-CompZ, compositeZ score for cell viability assay [1]: 0.6028 | R-CompZ, compositeZ score for reporter gene assay [2]: −2.6813

Cc1c(C)c2c(c(C)c1O)CCC(C)(COc1ccc(CC3SC(=O)NC3=O)cc1)O2 (stereo not drawn) [Troglitazone, troglitazone]
concentrations at which cytotoxic effects were exhibited [3]: ≥ 50 µM

COc1ccc2cc1Oc1ccc(cc1)C[C@H]1c3cc(c(OC)cc3CCN1C)Oc1c(OC)c(OC)cc3c1[C@H](C2)N(C)CC3 [tetrandrine]
cytotoxicity (in words) [3]: cytotoxicity

Reference: US20120094939A1, “ANTI-VIRAL COMPOUNDS, COMPOSITIONS AND METHODS” (priority 2007, published 2012)
